Here are results for 2 molecules from patent US9845460B2, “Treatment of pluripotent cells” (Janssen Biotech, Inc., priority 2008, dated 2017).

The subject of assay [1] is human embryonic stem cells (H9 line). The assay can be described thus: High content screening assay: total cell number (proliferative response). Format: cell-based. As to the method:
(§1) Maintenance of human embryonic stem cells (H9 line) was conducted as described in Example 1. Colonies of cells were maintained in an undifferentiated, pluripotent state with passage on average every four days. Passage was performed by exposing cell cultures to a solution of collagenase (1 mg/ml; Sigma-Aldrich) for 10 to 30 minutes at 37° C. followed by gentle scraping with a pipette tip to recover cell clusters. Clusters were allowed to sediment by gravity, followed by washing to remove residual collagenase. Cell clusters were split at a 1:3 ratio for routine maintenance culture or a 1:1 ratio for immediate assay. The human embryonic stem cell lines used were maintained at passage numbers less than passage 50 and routinely evaluated for normal karyotypic phenotype and absence of mycoplasma contamination.
Cell clusters used in the assay were evenly resuspended in normal culture medium and plated onto MATRIGEL-coated 96-well Packard VIEWPLATES (PerkinElmer) in volumes of 100 μl/well. MEF conditioned medium supplemented with 8 ng/ml bFGF was used for initial plating and recovery. Daily feeding was conducted by aspirating spent culture medium from each well and replacing with an equal volume of fresh medium. Plates were maintained at 37° C., 5% CO2 in a humidified box throughout the duration of assay.
Screening was conducted using test compounds from a proprietary library of small molecules selected for their ability to inhibit GSK-3B enzyme activity. Compounds from this library were made available as 1 mM stocks, in a 96-well plate format in 50 mM HEPES, 30% DMSO. Screening compounds were tested in triplicate or duplicate sets. Primary screening assays were initiated by aspirating culture medium from each well followed by three washes in PBS to remove residual growth factors and serum. Test volumes of 80 to 100 μl per well were added back containing DMEM:F12 base medium (Invitrogen) supplemented with 0.5% FCS (HyClone) and 100 ng/ml activin A (R&D Biosystems) plus […] test compound. Positive control wells contained the same base medium, substituting 10-20 ng/ml Wnt3a (R&D Biosystems) for the test compound. Negative control wells contained base medium with 0.5% FCS and activin A alone (AA only) or alternatively, 0.5% FCS without activin A or Wnt3a (no treatment). Wells were aspirated and fed again with identical solutions on day 2 of assay. On days 3 and 4, all assay wells were aspirated and converted to DMEM:F12 supplemented with 2% FCS and 100 ng/ml activin A (without test compound or Wnt3a); parallel negative control wells were maintained in DMEM:F12 base medium with 2% FCS and activin A (AA only) or alternatively, 2% FCS without activin A (no treatment). […]

Assay [2] concerns cells expressing pluripotency markers. The assay can be described thus: Viability (MTS, OD 490 nm) of cells expressing pluripotency markers treated with GSK-3B inhibitors. Format: cell-based, human. The following applies: for Raw data (duplicate): optical density at 490 nm (MTS), single wells. As to the method:
Derivation and maintenance of cells expressing pluripotency makers was conducted as has been described in Example 2. Cells were grown in DMEM:F12 supplemented with 2% FCS (Invitrogen), 100 ng/ml Activin A, 20 ng/ml Wnt-3a, and 50 ng/ml IGF (R&D Biosystems). Cells were seeded at a density of 10,000 cells/cm^2 on Falcon polystyrene flasks and grown in monolayer culture at 37° C., 5% CO2, low oxygen. After reaching 60-70% confluence, cells were passed by washing the monolayer with PBS and incubating with TrypLE (Invitrogen) for 3-5 minutes to allow detachment and single cell dispersal.
Screening was conducted using test compounds from a proprietary library of small molecules selected for their ability to inhibit GSK-3B enzyme activity. Compounds from this library were made available as 1 mM stocks, in a 96-well plate format in 50 mM HEPES, 30% DMSO. For assay, cells expressing pluripotency markers were washed, counted, and plated in normal culture medium at a seeding density of 20,000 cells per well in 96-well clear-bottom, dark-well plates (Costar). This seeding density was previously determined to yield optimal monolayer formation in overnight culture. On the following day, culture medium was removed, cell monolayers were rinsed three times with PBS, and test compounds were added to the wells in 80 μl aliquots, each diluted into assay medium at a final assay concentration of 10 μM. On day 2 of the assay, medium was removed from each well and replaced with a fresh aliquot of test compounds diluted into assay medium. Assay medium on days 1 and 2 of culture consisted of DMEM:F12 supplemented with 0.5% FCS and 100 ng/ml Activin A. On days 3 and 4 of culture, medium was removed from each well and replaced with DMEM:F12 supplemented with 2% FCS and 100 ng/ml Activin A (no test compound). On day 4 of assay, 15 μl of MTS (Promega) was added to each well and plates were incubated at 37° C. for 1.5 to 4 hours prior to reading optical density at 490 nm on a SpectraMax (Molecular Devices) instrument. Statistical measures consisting of mean, standard deviation, and coefficient of variation were calculated for each duplicate set. Toxicity was calculated for each test well relative to a positive control (wells treated with Activin A and Wnt3a on days 1 and 2 of culture).
A larger proportion of the compounds have minimal or no measurable toxicity in this cell-based assay.
A small panel of select compounds was repeat tested over a narrow dose titration range, again using cells expressing pluripotency markers in a similar assay as described above.

In assay [3] the test system is human embryonic stem cells (H9 or H1 lines). The assay can be described thus: Plate reader assay (MTS, OD490): proliferation of human embryonic stem cells. The assay is classed as cell-based. As to the method:
Maintenance of human embryonic stem cells (H9 or H1 lines) was conducted as described in Example 1. Colonies of cells were maintained in an undifferentiated, pluripotent state with passage on average every four days. Passage was performed by exposing cell cultures to a solution of collagenase (1 mg/ml; Sigma-Aldrich) for 10 to 30 minutes at 37° C. followed by gentle scraping with a pipette tip to recover cell clusters. Clusters were allowed to sediment and washed to remove residual collagenase. Cell clusters were split at a ratio of 1:3 monolayer area for routine culture or a 1:1 ratio for immediate assay. The human embryonis stem cell lines used for these examples were maintained at passage numbers less than 50 and routinely evaluated for normal karyotypic phenotype as well as absence of mycoplasm contamination.
Cell clusters used in assay were evenly resuspended in normal culture medium and plated into MATRIGEL-coated 96-well Packard VIEWPLATES (PerkinElmer) in volumes of 100 μl/well. MEF conditioned medium supplemented with 8 ng/ml bFGF) was used for initial plating and recovery. Daily feeding was conducted by aspirating spent culture medium from each well and replacing with an equal volume of fresh medium. Plates were maintained at 37° C. in a humidified box, 5% CO2 throughout the duration of assay.
Primary screening assays were initiated by aspirating culture medium from each well followed by three washes in PBS to remove residual growth factors and serum. Test volumes of 80-100 μl per well were added back containing DMEM:F12 base medium (Invitrogen) supplemented with 0.5% FCS (HyClone) and 100 ng/ml activin A (R&D Biosystems) and 10 μM test compound. […]
On day 4 of assay, […] of MTS (Promega) was added to each well and plates were incubated at 37° C. for 1.5 to 4 hours. Densitometric readings at OD490 were determined using a Molecular Devices spectrophotometer plate reader. Average readings for replicate sets were calculated along with standard deviation and coefficient of variation. […]

The next assay relates to HNF-3beta. The assay can be described thus: High content screening assay: HNF-3beta protein expression (total intensity). Format: cell-based, human. As to the method: as §1
(§2) Cell clusters used in the assay were evenly resuspended in normal culture medium and plated onto MATRIGEL-coated 96-well Packard VIEWPLATES (PerkinElmer) in volumes of 100 μl/well. MEF conditioned medium supplemented with 8 ng/ml bFGF was used for initial plating and recovery. Daily feeding was conducted by aspirating spent culture medium from each well and replacing with an equal volume of fresh medium. Plates were maintained at 37° C., 5% CO2 in a humidified box throughout the duration of assay. […]

Another assay concerns Sox17. The assay can be described thus: High content screening assay: Sox17 protein expression (total intensity). Format: cell-based, human. As to the method:
as §1, §2

[4] abbreviates: total intensity normalized to Wnt3a/Activin A positive control.

Several values for one entry are separate records, joined by “and”; a condition that tells them apart may be missing. Equal values may be shown once.

For `OCCC#Cc1nc(-c2ccc(F)cc2)c(-c2ccncc2)n1CCCc1ccccc1` [RWJ67657], the “Proliferative Response Total cells (HNF-3b Expression set)” value in assay [1] (total cell number in wells stained for HNF-3b) amounted to 6058. Also, in assay [1] (total cell number in wells stained for SOX-17), the “Proliferative Response Total cells (SOX-17 Expression set)” value turned out to be 6376. Further, the “Proliferative Response Fold over Wnt 3a/AA control (HNF-3b Expression set)” value in assay [1] (total cells normalized to Wnt3a/Activin A positive control, wells stained for HNF-3b) is recorded as 0.3852 Fold over Wnt 3a/AA control. Besides, the “Proliferative Response Fold over Wnt 3a/AA control (SOX-17 Expression set)” value in assay [1] (total cells normalized to Wnt3a/Activin A positive control, wells stained for SOX-17) was 0.4162 Fold over Wnt 3a/AA control. Besides, the Average in assay [2] (MTS viability readout, average of duplicate raw data) was determined as 0.644; in assay [2] (cmpd conc 2.5 uM, mean optical density at 490 nm (MTS) of duplicate), 0.7971; in assay [2] (cmpd conc 5 uM, mean optical density at 490 nm (MTS) of duplicate), 0.8183; in assay [2] (cmpd conc 10 uM, mean optical density at 490 nm (MTS) of duplicate), 0.6052. The “Raw data (duplicate), first value” in assay [2] (MTS viability readout, first of duplicate wells) is reported as 0.629. In addition, the “Raw data (duplicate), second value” in assay [2] (MTS viability readout, second of duplicate wells) is 0.659. In addition, the “Raw data (duplicate)” value in assay [2] (cmpd conc 2.5 uM) is 0.8041 and 0.7900; in assay [2] (cmpd conc 5 uM), 0.8047 and 0.8319; in assay [2] (cmpd conc 10 uM), 0.6195 and 0.5908. Further, the “% Control” value in assay [2] (cmpd conc 2.5 uM, viability relative to AA + Wnt3a positive control, MTS day 4) is 93.2%; in assay [2] (cmpd conc 5 uM, viability relative to AA + Wnt3a positive control, MTS day 4), 96.2%; in assay [2] (cmpd conc 10 uM, viability relative to AA + Wnt3a positive control, MTS day 4), 66.5%; in assay [2] (viability as % of control), 77.7%; in assay [3] (relative to the AA/Wnt3a/DMSO positive control of the same plate (= 100.0)), 84.7%. For the same molecule, the “% Control Value” in assay [3] (10 μM test compound, MTS OD490 on day 4, relative to Activin A/Wnt3a positive control) is 84.7%. Further, in assay [3] (mean of replicate raw plate-reader readings (MTS, OD490), proliferation of human embryonic stem cells), the “Average (of Raw Data)” value is listed as 1.2242. Also, the “HNF-3b Expression Total Intensity” value in the assay on HNF-3beta (total intensity) is 269025000. The “HNF-3b Expression Fold over Wnt 3a/AA control” value in the assay with HNF-3beta (setting [4]) is 0.2428 Fold over Wnt 3a/AA control. Further, the “SOX-17 Expression Total Intensity” value with Sox17 (total intensity) is 324450000. Further, the “SOX-17 Expression Fold over Wnt 3a/AA control” value with Sox17 (setting [4]) is recorded as 0.3336 Fold over Wnt 3a/AA control.

B1: AA only: control wells with base medium, FCS and activin A alone (protein, UniProt P08476 311-426, looked up)
Inhibin beta A chain: GLECDGKVNICCKKQFFVSFKDIGWNDWIIAPSGYHANYCEGECPSHIAGTSGSSLSFHSTVINHYRMRGHSPFANLKSCCVPTKLRPMSMLYYDDGQNIIKKDIQNMIVEECGCS
Turning to B1, in assay [2] (control wells without test compound, mean optical density at 490 nm (MTS)), the Average was 0.8889 and 0.7861. Besides, in assay [2] (control wells without test compound), the “Raw data (duplicate)” value is 0.8732 and 0.9046 and 0.7674 and 0.8047. Moreover, in assay [2] (control wells without test compound, relative to AA + Wnt3a), the “% Control” value was 106.0% and 98.3%.
